Data taken from patent US10888555B2 (CONARIS RESEARCH INSTITUTE AG, priority 2013, dated 2021).
“Also recorded” adds a separate entry of the source.

What was measured:
[1] = test system: C57BL/6J mice; assay: Acute tunicamycin-induced NAFLD/NASH model: histological liver damage score; format: in vivo, mouse; conditions: 60 mg/kg/d in drinking water, 3 mice with and 3 without NAM, 48 h after tunicamycin 2 μg/g i.p., FIG. 4
Procedure: In order to extend the findings of von Schönfels et al. 2014 (Liver Int. doi: 10.1111/liv.12476) with NA in a chronic model of NAFLD, the effect of NAM was investigted in an acute murine model of NASH (Lee et al. 2012, Toxicol. Lett. 211:29). C57BL/6J mice (n=6; age: 12-13 weeks) were injected intraperitoneally with tunicamycin (TM; 2 μg/g body weight). After 48 h, the mice were sacrificed and liver tissue was collected for histological analysis of signs of NAFLD/NASH as described previously (Lee et al. 2012, Toxicol. Lett. 211:29). NAM was administered to three of the six mice in the drinking water from 2 days before the TM challenge until the end of the experiment. NAM was administered at 0.4 g/l, corresponding to approximately 60 mg/kg/d (assumptions from general averages: body weight of a mouse: 20 g; water intake: 3 mL/mouse/d; 3 mL with a concentration of 0.4 g/L contained 1.2 mg NAM, resulting in a dose of approximately 60 mg/kg/d).
Paraffin-embedded liver tissue sections (3 μm) from mice after TM challenge were subjected to hematoxylin/eosin staining and scored in a blinded manner. Hepatic steatosis, hepatocyte ballooning and inflammation were determined in a scoring system modified from Brunt 2001 (Semin. Liver Dis. 21:3). The stage scores were based on liver fibrosis. The 0-3 grading includes: 0, none; 1, mild; 2, moderate; and 3, severe.

[2] = cited from earlier work

Structure (SMILES)	tunicamycin-induced NAFLD/NASH liver damage score [1]	recommended maximum nutritional doses ([2]; adults, SCF/CS/NUT/UPPLEV/39)	doses above which side effects including flush, tachycardia, blood pressure dysregulation and diarrhea have to be anticipated ([2]; Carlson 2005, German Federal Institute for Risk Assessment) [mg/day]	tolerable upper intake level without anticipated side effects ([2]; adults, European Scientific Committee on Food) [mg/day]
NC(=O)c1cccnc1 [NAM, nicotinamide]	small, but significant reduction; also recorded: moderate, but significant protection	up to 900 mg/d		
O=C(O)c1cccnc1 [nicotinic acid]			100 to 300	10
